# Key:
# AoRib2 = molecular target: T1, AoRib2 (Aspergillus oryzae, UniProt Q2UFA9); assay: deaminase assay, fluorescence after diacetyl modification; type: biochemical; details: 310 K, 30 min; DARIPP made enzymatically in situ from GTP
# T1 construct: gene rib2; full length, 222 residues; monomer
# T1 sequence (Q2UFA9 1-222): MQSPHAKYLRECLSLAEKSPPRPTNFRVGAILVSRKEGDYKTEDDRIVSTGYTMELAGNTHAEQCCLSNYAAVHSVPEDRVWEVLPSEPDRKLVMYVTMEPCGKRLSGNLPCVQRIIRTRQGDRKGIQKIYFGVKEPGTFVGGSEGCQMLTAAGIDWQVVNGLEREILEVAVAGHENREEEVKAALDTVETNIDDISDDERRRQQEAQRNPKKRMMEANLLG
# AoRib2_188 = molecular target: T2, AoRib2_188 (Aspergillus oryzae, UniProt Q2UFA9); assay: X-ray crystal structure, soaked, […] A; type: binding; details: crystals pH 6.5 (MES), soaked 20 min in 50-100 mM DARIPP; active site with Zn2+
# T2 construct: gene rib2; deaminase domain, residues 1-188 of 222, C-terminal segment deleted; Zn ligands His61, Cys102, Cys112, general base Glu63
# T2 sequence (Q2UFA9 1-188): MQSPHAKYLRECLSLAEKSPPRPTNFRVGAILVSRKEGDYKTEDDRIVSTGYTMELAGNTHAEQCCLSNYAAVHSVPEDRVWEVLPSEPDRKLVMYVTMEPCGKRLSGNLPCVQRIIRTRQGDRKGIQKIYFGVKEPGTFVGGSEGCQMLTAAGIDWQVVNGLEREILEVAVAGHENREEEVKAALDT
compound,measurement,setting,value
"Nc1nc(NC[C@H](O)[C@H](O)[C@H](O)COP(=O)(O)O)c(N)c(=O)[nH]1 [DARIPP, 2,5-diamino-6-ribitylamino-4(3H)-pyrimidinone 5′-phosphate]","deaminase assay, fluorescence after diacetyl modification",AoRib2,the recombinant protein is able to catalyze the conversion of DARIPP to ARIPP
same,"X-ray crystal structure, soaked, 1.58 A",AoRib2_188,DARIPP could be built nicely into strong electron density and is firmly embedded in the active site
